Source: the NIST ThermoML archive (doi:10.1021/acs.jced.6b00168)
“And” between values parts separate entries of the source, which are not always exact repeats. Equal values may be shown once. Numbers after ± are expanded uncertainties.

Tests used:
[1] = 298.15 K; 100 kPa; Liquid; Frequency=3 MHz; Sing-around technique in a fixed-path interferometer
[2] = mn = molality of the nth substance listed, in mol/kg; conditions: 100 kPa, Liquid; for speed of sound: Frequency=3 MHz, Sing-around technique in a fixed-path interferometer; for mass density: Vibrating tube method

O [water]
Conditions | speed of sound [m/s]
[1] | 1495.9 ± 1.6

O=C(N[C@H](CO)[C@H](O)c1ccc([N+](=O)[O-])cc1)C(Cl)Cl + O
[2]
Conditions | mass density, 288.15 K [kg/m3] | mass density, 298.15 K [kg/m3] | mass density, 308.15 K [kg/m3] | mass density, 318.15 K [kg/m3] | speed of sound, 288.15 K [m/s] | speed of sound, 298.15 K [m/s] | speed of sound, 308.15 K [m/s] | speed of sound, 318.15 K
m1 = 0.0005 | 999.273 ± 0.23 | 997.209 ± 0.23 | 994.205 ± 0.23 | 990.372 ± 0.23 | 1466.9 ± 1.6 | 1496 ± 1.6 | 1519.6 ± 1.6 | 1536.2 ± 1.6 m/s
m1 = 0.001 | 999.429 ± 0.23 | 997.363 ± 0.23 | 994.356 ± 0.23 | 990.522 ± 0.23 | 1467 ± 1.6 | 1496.1 ± 1.6 | 1519.7 ± 1.6 | 1536.4 ± 1.6 m/s
m1 = 0.002 | 999.643 ± 0.23 | 997.576 ± 0.23 | 994.56 ± 0.23 | 990.713 ± 0.23 | 1467.1 ± 1.6 | 1496.2 ± 1.6 | 1519.9 ± 1.6 | 1536.8 ± 1.6 m/s and 1536.5 ± 1.6 m/s
m1 = 0.004 | 999.922 ± 0.23 | 997.847 ± 0.23 | 994.831 ± 0.23 | 990.992 ± 0.23 | 1467.5 ± 1.6 | 1496.7 ± 1.6 | 1520.2 ± 1.6 | 1536.8 ± 1.6 m/s
